Measured values published in US6022699A, “Myeloperoxidase assay of endotoxin-induced inflammation” (Alcon Laboratories, Inc., priority 1999, dated 2000).
“Also recorded” adds a separate entry of the source.

Key:
[1] = target: T1, Human sputum myeloperoxidase (HSMPO) (Homo sapiens, UniProt P05164); test: Spectrophotometric (460 nm) assay of MPO-catalyzed oxidation of o-DA; assay type: biochemical
T1 construct: mature light and heavy chains from one precursor
T1 sequence (P05164 165-745): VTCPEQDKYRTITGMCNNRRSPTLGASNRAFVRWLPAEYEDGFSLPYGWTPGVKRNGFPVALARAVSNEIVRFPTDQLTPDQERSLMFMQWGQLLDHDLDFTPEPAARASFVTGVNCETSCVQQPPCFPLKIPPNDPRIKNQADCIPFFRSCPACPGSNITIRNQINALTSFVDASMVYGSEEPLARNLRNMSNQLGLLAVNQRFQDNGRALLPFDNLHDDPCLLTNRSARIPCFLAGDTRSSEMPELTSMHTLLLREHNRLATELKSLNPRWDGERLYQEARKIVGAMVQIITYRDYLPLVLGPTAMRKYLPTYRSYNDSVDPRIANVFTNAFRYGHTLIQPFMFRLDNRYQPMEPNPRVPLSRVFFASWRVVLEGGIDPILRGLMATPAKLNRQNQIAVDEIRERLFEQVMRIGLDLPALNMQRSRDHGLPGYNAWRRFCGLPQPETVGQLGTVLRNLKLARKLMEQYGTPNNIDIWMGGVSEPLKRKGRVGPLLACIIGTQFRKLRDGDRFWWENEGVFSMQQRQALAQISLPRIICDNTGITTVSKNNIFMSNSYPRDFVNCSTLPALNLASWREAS
Procedure: N-ethylmaleimide (NEM), o-DA (3,3'-dimethoxybenzidine dihydrochloride), HTA-Br, LPS (lipopolysaccharide, E. coli 0111:B4), heparin, dexamethasone,histopaque 1083 and histopaque 1119 were obtained from Sigma Chemical Company, St. Louis, Mo. Dextran-100 was a product of Crescent Chemical Company, Hauppauge, N.Y. Hydrogen peroxide (30%) was obtained from J. T. Baker and stored at 4° C. All other chemicals used were of the highest purity available. Human sputum myeloperoxidase (HSMPO) was obtained from Elastin Products Co., Pacific, Mo. The enzyme (2.4 mg solid) was dissolved in 2.4 mL of 50 mM potassium phosphate buffer (pH 6.0), and stored in 0.1 mL aliquots at -20° C., then diluted 10-fold with 50 mM potassium phosphate buffer (pH 6.0) to provide a HSMPO concentration of 0.1 mg/mL.
To evaluate potential assay interference by ASC, conditions were selected which permitted the spectrophotometric assessment of ASC effects on the extent of o-DA oxidation. This was accomplished using sub-saturating concentrations of H2 O2 (37 mM), 1.5 mM o-DA a nd excess enzyme. MPO activity was assayed at room temperature in a final volume of 3.0 mL containing 50 mM potassium phosphate buffer (pH 6.0), 37 mM H2 O2, and 1.5 mM o-DA. Reactions were initiated by addition of 2 mg HSMPO: (a) control reaction, (b) ASC (3.2 mM) added 3.6 minutes after initiation of the reaction, (c) ASC (32 mM) added just prior to the initiation of the reaction and (d) ASC (64 mM) added just prior to the initiation of the reaction.
The effect of GSH on o-DA oxidation by HSMPO was assessed in an analogous fashion. MPO activity was assayed at room temperature in 3.0 mL of 50 mM potassium phosphate (pH 6.0), supplemented with 37 mM H2 O2, and 1.5 mM o-DA. (a) HSMPO (2 mg) was added 2 minutes after addition of NEM (6.6 mM) and GSH (1.65 mM), (b) NEM (6.6 mM) was added 5 minutes prior to addition of HSMPO (2 mg) (c) GSH (3.3 mM) was added 3.5 minutes after initiation of the reaction by addition of HSMPO (2 mg), (d) GSH (0.33 mM) was added just prior to initiation of the reaction with HSMPO (2 mg) with NEM (6.6 mM) added 20 seconds following initiation of the reaction, (e) GSH (0.33 mM) was added just prior to initiation of the reaction with HSMPO (2 mg) with NEM (6.6 mM) added 1.0 minute following initiation of the reaction, and (f) GSH (1.65 mM) was added just prior to initiation of the reaction.

[2] = tested on: PMN infiltrates within the different compartments of the eye; test: Histopathologic evaluation of PMN infiltrates in eye sections; assay type: in vivo, Lewis rat; conditions: topical dexamethasone-treated animals
Procedure: Inhibition of PMN influx into ocular tissue of the Lewis rat by dexamethasone was evaluated as follows. Dexamethasone suspensions were prepared in a carbopol ophthalmic suspension vehicle at concentrations of 0.0033%, 0.01%, 0.033%, 0.04% and 0.10%, w/v. A 5 μL aliquot of test drug or vehicle was applied topically to each eye of the experimental animals 24, 20, and 4 hours prior to, at the time of, and 4 and 20 hours after LPS foot pad injection. Twenty-four (24) hours following LPS administration, eyes were enucleated, quickly frozen on dry ice and stored at -70° C. until used for tissue extraction and assessment of MPO activity. Alternatively, eyes were enucleated and fixed in a solution of phosphate buffered (40 mM) formalin (4%), pH 6.0. Eyes were embedded in paraffin and sectioned. Using light microscopy, hematoxylin- and eosin-stained sections were examined for the presence and distribution of PMN infiltrates within the different compartments of the eye. Infiltrates were ranked subjectively on a scale ranging from 0 to 5, where 0=not remarkable, 1=minimal, 2=slight/mild, 3=moderate, 4=moderately severe, and 5=severe/high.

In the case of `CCN1C(=O)C=CC1=O` [NEM, N-ethylmaleimide], the “inhibitory effect of GSH” value ([1]; NEM 6.6 mM added together with GSH 1.65 mM 2 minutes prior to addition of enzyme) is reported as “fully abolished” and the “effect on MPO activity” value ([1]; NEM alone (6.6 mM), absence of GSH) is reported as “does not affect MPO catalysis; also recorded: little effect on MPO activity”.
`C[C@@H]1C[C@H]2[C@@H]3CCC4=CC(=O)C=C[C@]4(C)[C@@]3(F)[C@@H](O)C[C@]2(C)[C@@]1(O)C(=O)CO` [dexamethasone] was tested, and the “PMNs in anterior and posterior compartments and associated ocular tissue (histopathology)” value [2] was “dose dependent decline in PMNs”.
With `O=C1O[C@H]([C@@H](O)CO)C(O)=C1O` [ASC, ascorbic acid] the “effect on the 460 nm absorbance attained” value ([1]; ASC 3.2 mM added to control reaction when enzyme catalysis had ceased) was “little effect”, the “development of absorbance at 460 nm” value ([1]; ASC 64 mM added just prior to initiation) was “fully abolished” and the “interference in the spectrophotometric assay of MPO, ASC compared with GSH” value ([1]; concentration dependent) was “more effective than GSH”.
For `N[C@@H](CCC(=O)N[C@@H](CS)C(=O)NCC(=O)O)C(=O)O` [GSH, glutathione], the “increase in 460 nm absorbancy” value ([1]; GSH 1.65 mM present at the initiation of the MPO reaction) was “fully prevented” and the change in absorbancy ([1]; GSH 3.3 mM added to control peroxidase reactions that had ceased) was “little change in absorbancy”.
